In publication PMC4885110, “Structure-Based Design of an in Vivo Active Selective BRD9 Inhibitor” (Journal of Medicinal Chemistry, 2016):

Legend:
[1] = design: method as in earlier work; details: cited from earlier work
[2] = assay type: in vivo; details: Mouse 5 mg/kg i.v. bolus
Text: Mice were housed under pathogen-free conditions (AAALAC accredited facility) and treated according to the institutional, governmental and European Union guidelines (GV-SOLAS, Felasa, Austrian Animal Protection Laws). All animal studies were reviewed and approved by the internal ethics committee of Boehringer Ingelheim and the local governmental committee (Amt der Wiener Landesregierung, Magistratsabteilung 58, Vienna, Austria).
Pharmacokinetic and efficacy studies in mice […]
Following injection of the cells animals were randomized based on body weight (n=10/group). […] All doses were calculated relative to the mouse body weight on the treatment day. […]
body weight loss. Tumour load was measured 2-3 times weekly based on bioluminescence imaging as described previously. […]
1x10^6 cells/mL were incubated and continuously shaken in a Thermo Scientific Cytomat™ for 4 h at 85-95% relative humidity and 5-10% CO2 at 37 °C. Aliquots were taken from the medium at 0, 0.5, 1, 1.5, 2.5 und 4 h and concentrations of the test compounds quantified by HPLC/MS/MS on a BIOCIUS Life Sciences RapidFire® system coupled to a Thermo Scientific™ TSQ Vantage™ triple-quadrupole mass spectrometer. Predicted clearances were calculated using the well-stirred model.
(§1) In vitro plasma protein binding (PPB) was determined by a semi-automated equilibrium dialysis assay on a Tecan robotic system at a test compound concentration of 3 µM. […]

[3] = 1 week tolerability study in non-tumor-bearing CIEA-NOG mice; assay type: in vivo; details: 180 mg/kg, continuous daily dosing, female CIEA-NOG mice
[4] = Hepatocytes predicted clearance, mouse; assay type: in vitro ADME
Protocol: (§2) this tumor mouse model body weight changes can occur due to increased tumor load or due to […]
(§3) Determination of physicochemical and in vitro DMPK parameters […]
(§4) diluted with aqueous McIlvaine buffer at pH 6.8, or with acetonitrile/water (1:1) as a reference. Samples were shaken for 24 h at room temperature in 96-well plates (Whatman Uniplate® 96 wells, 750 µL, polypropylene, round bottom). The plate was then centrifuged at 3,000 rpm for 2 min. 250 µL of each sample were transferred to a Millipore MultiScreenHTS filter plate with a polycarbonate membrane, pore size 0.45 μm. Filtrates were collected by centrifugation at 3,000 rpm for 2 min. The dissolved concentrations were determined by UPLC/UV on a Waters ACQUITY UPLC® SQD system equipped with a Waters ACQUITY UPLC® BEH 2.1x50 mm C18 column, particle size 1.7 µm, using a short gradient with water/0.1% formic acid as solvent A and acetonitrile/0.1 % formic acid as solvent B (5 to 95 % B with 1.7 min total cycle time). Compound signals were measured with a photodiode array UV detector operated at 254 nm. Solubility was determined with a one point calibration by comparing peak areas relative to the reference standard using Waters Empower software. […]
as §1

U2OS cells = test: Toxicity in U2OS cells; assay type: cell-based; details: after 24 h
Protocol: Figure 4 FRAP assay using U2OS cells transfected with GFP–BRD9. (a) Recovery half times of wild-type (wt) cells treated with DMSO in the absence or presence of 2.5 μM SAHA or treated with 1 at 1 μM and SAHA as indicated. In addition, cells expressing GFP–BRD9 with a BD-inactivating mutation (N100F) were analyzed. Significant differences relative to cells treated with SAHA (p < 0.0001) are shown by ****. (b) Time dependence of fluorescence recovery in the bleached area of cells expressing wt or mutant GFP–BRD9 with the corresponding treatments shown in (a). (c) Recovery half times of cells expressing wt GFP–BRD9 treated with various concentrations of DMSO and 2 in the presence or absence of SAHA as indicated. Cells expressing the GFP–BRD9 mutant (N100F) were treated as indicated. Significant differences relative to cells treated with SAHA (p < 0.0001) are shown by ****. (d) Time dependence of fluorescence recovery in the bleached area of cells expressing wt or mutant GFP–BRD9 with the corresponding treatments shown in (c). Curves represent averaged data of at least 20 replicates. […] The N100F construct is a negative control BRD9 mutant in which Asn100 is replaced by Phe100 and therefore acetylated histone cannot bind because of the lack of interaction to the anchor Asn and because of steric hindrance. […]

[5] = Disseminated EOL-1 AML mouse model; assay type: in vivo; details: female, CIEA-NOG, po, 180 mg/kg p.o., plasma, last day of treatment
[6] = Hepatocytes predicted clearance, rat; assay type: in vitro ADME
Protocol: as §2, §3, §4, §1

Aqueous solubility = assay type: physicochemical; details: aqueous McIlvaine buffer, pH 6.8
Protocol: as §2, §3, §4

[7] = Hepatocytes predicted clearance, human; assay type: in vitro ADME
Protocol: as §2, §3, §4, §1

SMILES | membrane permeability [1] [nM/s] | plasma CL [2] [% QH] | tolerability [3] | Hepatocytes pred. CL mouse [4] [% QH] | toxicity in U2OS cells (U2OS cells) | AUC(0-t) [5] [µM·h] | Hepatocytes pred. CL rat [6] [% QH] | solubility at 24 h (Aqueous solubility) [mg/mL] | Hepatocytes pred. CL human [7] [% QH]
CCn1cc(-c2cccc(C(F)(F)F)c2)c2sc(C(=N)NC3CCS(=O)(=O)CC3)cc2c1=O [I-BRD9] | 210 |  |  |  |  |  |  |  | 
COc1cc(-c2cn(C)c(=O)c3cnccc23)c(OC)cc1CN(C)C [Compound 2, 4-{4-[(Dimethylamino)methyl]-2,5-dimethoxyphenyl}-2-methyl-1,2-dihydro-2,7-naphthyridin-1-one] |  | 65 | well-tolerated | 56 | no toxicity | 268 | 17 | > 0.09 | 17
COc1cc(-c2cn(C)c(=O)c3cnccc23)cc(OC)c1CN(C)C [Compound 1, n1cc2c(cc1)C(=CN(C2=O)C)c1cc(c(c(c1)OC)CN(C)C)OC] |  | 57 |  | 58 | no toxicity |  | < 7 | > 0.091 | 17
